Data on one compound can be found in patent publication EP2698367A1, “Benzimidazoles for the treatment of cancer” (Max-Planck-Gesellschaft zur Förderung der Wissenschaften …, priority 2012, dated 2014).

Experiment [1] relates to Erk. Description: Western blot of ERK signaling (Erk phosphorylation) in PANC-TUI cells. The class given is cell-based, human. The settings on record: 5 µM, EGF, measured by phosphorylation. On the technique in general: In western blotting, separated proteins are transferred to a membrane and probed.
Experiment [2] deals with interaction of Rheb with PDEδ (Homo sapiens, UniProt O43924). The settings on record: 5 µM, live MDCK cells, measured by FLIM.
interaction of Rheb with PDEδ, sequence (O43924 whole entry): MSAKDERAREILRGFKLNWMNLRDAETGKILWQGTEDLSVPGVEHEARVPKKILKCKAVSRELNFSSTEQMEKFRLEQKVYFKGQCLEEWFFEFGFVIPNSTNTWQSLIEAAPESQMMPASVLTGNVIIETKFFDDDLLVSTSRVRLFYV
Experimental: To address whether the novel compounds that target the farnesyl binding pocket in PDEδ inhibit the interaction between PDEδ and Ras family proteins in live cells, fluorescence lifetime imaging microscopy (FLIM)-based quantitative fluorescence resonance energy transfer (FRET) measurements were carried out. These experiments allow the quantitative determination of the fraction (α) of interacting mCitrine (a yellow fluorescent protein) tagged Ras proteins with mCherry (a red fluorescent protein) tagged PDEδ in living cells by the change in the fluorescence lifetime (τav) of the mCitrine fused to Ras. mCitrine-Rheb was selected as the farnesylated Ras family protein due to its more clearly measurable interaction with mCherry-PDEδ in live cells.
All cells were routinely maintained in MEM Eagle's medium supplemented with 10% FBS, 1% non-essential amino acids and 1% L-glutamine. […]
Fluorescence lifetime images were acquired using a confocal laser scanning microscope (FV1000, Olympus) equipped with a time-correlated single-photon counting module (LSM Upgrade Kit, Picoquant). […] Photons were detected using a single-photon counting avalanche photodiode (PDM Series, MPD) and timed using a single-photon counting module (PicoHarp 300, Picoquant).
For experiment [3], the system named is CAPAN-1 cells. The experiment is described as follows: Real time cell analysis (RTCA) of CAPAN-1 cells. The class given is cell-based. Particulars: 5µM, K-Ras dependent pancreatic tumor cell.
For experiment [4], the system named is mCherry-K-Ras in PancTul cells. Description: Time series of mCherry-K-Ras redistribution in PancTul cells. Format: cell-based, human. Particulars: 5µM.
Experiment [5] relates to mCherry-K-Ras in Panc1 cells. Description: Time series of mCherry-K-Ras redistribution in Panc1 cells. Particulars: 5µM. The class given is cell-based, human.
In experiment [6] the test system is PANC-TUI cells. Description: Real time cell analysis (RTCA) of PANC-TUI cell proliferation. Format: cell-based, human. Particulars: 5µM, K-Ras dependent pancreatic tumor cell. The method, then: To address whether the novel compounds that target the farnesyl binding pocket in PDEδ inhibit the interaction between PDEδ and Ras family proteins in live cells, fluorescence lifetime imaging microscopy (FLIM)-based quantitative fluorescence resonance energy transfer (FRET) measurements were carried out. […] Figure 4: Real time cell analysis (RTCA) of PANC-TUI cell proliferation. PANC-TUI is a K-Ras dependent pancreatic tumor cell.

`c1ccc(Cn2c(-c3ccc(OC[C@H](C4CCNCC4)n4c(-c5ccccc5)nc5ccccc54)cc3)nc3ccccc32)cc1` [(S)-9, (S)-1-Benzyl-2-(4-(2-(2-phenyl-1H-benzo[d]imidazol-1-yl)-2-(piperidin-4-yl)ethoxy)phenyl)-1H-benzo[d]imidazole]: the “activation of Erk” value in experiment [1] is “attenuated activation of Erk”. The “interaction between mCitrine-Rheb and mCherry-PDEδ” value in experiment [2] is “more rapidly (within one minute) and more strongly reduced”. For the same compound, the “Proliferation of CAPAN-1 cells” value in experiment [3] was “inhibited strongly”. Besides, the mCherry-K-Ras redistribution result in experiment [4] and in experiment [5] was “loss of K-Ras spatial organization” each time. Further, the PANC-TUI cell proliferation entry in experiment [6] was “stopped proliferating and underwent cell death within a few hours”.
